This is an account of results in ChEMBL document CHEMBL3507680, “University of Dundee, Gates Library screen for HepG2 cell viability”.

The data set in a line: Human HepG2 cell viability assay in 384 well format. Further details: dose 125 nL, time 70.5 hour; concentration not given beside the values. The following applies: HepG2 cells, read-out: Inhibition. The format is toxicity, cell-based.

On to `O=C(NCCNC(=O)C1Cc2cc(F)ccc2O1)C1CCCCC1` (centres undefined), for which the cytotoxicity at 70.5 h is -9.82%.

As for `COc1c(C(=O)NCC(C)Sc2ccccc2)c(C)nn1C` (centres undefined), the cytotoxicity at 70.5 h is -5.69%.

Take `Cc1csc(C2CCCCN2C(=O)Cn2cncn2)n1` (centres undefined): the cytotoxicity at 70.5 h is 20.9%.

With `N#Cc1nccnc1N1CCC(c2nc(C(F)(F)F)c[nH]2)CC1`, the cytotoxicity at 70.5 h is -9.24%.

Take `N#Cc1cccnc1N1CCC(c2nc(C(F)(F)F)c[nH]2)CC1`: the cytotoxicity at 70.5 h is -15.7%.

In the case of `N#Cc1ccc(N2CCC(c3nc(C(F)(F)F)c[nH]3)CC2)nc1`, the cytotoxicity at 70.5 h is -11.5%.

On to `FC(F)(F)c1c[nH]c(C2CCN(c3ncccn3)CC2)n1`, for which the cytotoxicity at 70.5 h is -15.4%.

With `Cn1cc(Br)cc(NC(=O)CC(C)(C)C)c1=O`, the cytotoxicity at 70.5 h is -13.2%.

For `CCC(=O)Nc1cc(Br)cn(C)c1=O`, the cytotoxicity at 70.5 h turned out to be 23.5%.

With `CC(C)(C)OC(=O)N1CCC[C@H](NCc2cc[nH]c2)C1`, the cytotoxicity at 70.5 h was -11%.

Regarding `CCc1nc(C(=O)N2CCN(CCc3ccc(OC)cc3)CC2)c[nH]1`, the cytotoxicity at 70.5 h is -12.3%.

Regarding `Brc1csc(CNCc2nnc3n2CCC3)c1`, the cytotoxicity at 70.5 h was -12.4%.

For `CC(C)SCc1cccc(NC2CCN(C)C2=O)c1` (centres undefined), the cytotoxicity at 70.5 h is -15.1%.

With `O=C(Nc1cn[nH]c1)N(CCO)C1CCc2ccccc21` (centres undefined), the cytotoxicity at 70.5 h was -13.9%.

For the compound `CC(C)(C)OC(=O)N1CCC[C@H](NCC2=CCCOC2)C1`, the cytotoxicity at 70.5 h is -9.87%.

Turning to `CCc1nnc2n1CC(CNCc1nc(C)c(C)o1)CC2` (centres undefined), the cytotoxicity at 70.5 h was -2.88%.

Turning to `Cc1ccc(O)c(CNCC(C)c2nc3ccccc3o2)n1` (centres undefined), the cytotoxicity at 70.5 h was -4.08%.

Take `Cc1ccc(S(=O)(=O)N(CC(N)=O)CC(C)C)cc1C`: the cytotoxicity at 70.5 h is -5.56%.

With `Brc1ccc(-c2nnc(CN(Cc3cccs3)CC3CCCO3)o2)s1` (centres undefined), the cytotoxicity at 70.5 h was -14.5%.

In the case of `CN(Cc1ccc(N(C)C)cc1)C(=O)CSc1ccc(Br)cc1`, the cytotoxicity at 70.5 h was -9.49%.

Regarding `Cc1nnc(NCCC(=O)NCc2ccccc2)c(C#N)c1C`, the cytotoxicity at 70.5 h is -9.42%.

Take `Cc1nnc(NCCC(=O)N(C)Cc2ccccc2)c(C#N)c1C`: the cytotoxicity at 70.5 h amounted to 3.39%.

On to `CCOc1ncccc1NC(=O)Nc1c(C)nn(C(C)C)c1C`, for which the cytotoxicity at 70.5 h was -4.11%.

For `Cc1cc(C)c(CNC(=O)NCC2Cc3ccccc3O2)c(=O)[nH]1` (centres undefined), the cytotoxicity at 70.5 h is -6.51%.

For the compound `O=C(c1cc(F)cc2[nH]cnc12)N1CCCC1Cn1cccn1` (centres undefined), the cytotoxicity at 70.5 h is -8.91%.

As to `Cc1nnc(C(NS(=O)(=O)c2cc(C#N)ccc2C)C(C)C)[nH]1` (centres undefined), the cytotoxicity at 70.5 h was -5.93%.

Regarding `CCn1nc2c(cc1=O)CN(c1ncnc3ccsc13)CC2`, the cytotoxicity at 70.5 h is -7.93%.

As to `CC(C)n1nc2c(cc1=O)CN(c1ncnc3ccsc13)CC2`, the cytotoxicity at 70.5 h turned out to be 13.9%.

For the compound `CC(C)n1nc2c(cc1=O)CN(c1ncnc3ccccc13)CC2`, the cytotoxicity at 70.5 h was -1.82%.

Consider `Cc1nnc(C(NS(=O)(=O)c2cc(F)c(C)cc2F)C(C)C)[nH]1` (centres undefined), for which the cytotoxicity at 70.5 h was -5.12%.

With `Cn1cnnc1-c1ccnc(NCc2ccc3c(c2)OCCO3)c1`, the cytotoxicity at 70.5 h was -3.05%.

`OC1CCN(c2ccnc3c(F)cc(Br)cc23)CC1`: the cytotoxicity at 70.5 h came to 16.9%.

Turning to `Cc1cc(S(=O)(=O)NC(=O)CCc2cncc(F)c2)c(C)s1`, the cytotoxicity at 70.5 h is -1.54%.

For `Cc1cn2c(n1)C(CNCC1=Cc3ccccc3OC1)CCC2` (centres undefined), the cytotoxicity at 70.5 h was 10.6%.

As to `CN(Cc1ccccc1)C(=O)CCNc1ncccc1C#N`, the cytotoxicity at 70.5 h was -4.83%.

As to `FC(F)COc1ccccc1NCc1nnsc1Cl`, the cytotoxicity at 70.5 h was -10.5%.

Consider `O=C(c1c[nH]c2ncccc12)N1CCC(COc2ccccc2)CC1`, for which the cytotoxicity at 70.5 h was found to be 10.4%.

Regarding `CN(C)C(CNC(=O)c1nc(N2CCCC2)ncc1Cl)c1ccco1` (centres undefined), the cytotoxicity at 70.5 h is -17.5%.

On to `COc1cc2c(cc1OC)S(=O)(=O)N(Cc1ccc(C)cc1)C2=O`, for which the cytotoxicity at 70.5 h is -14.5%.

As for `Cc1ccc(C(=O)O)cc1S(=O)(=O)N(CC(C)O)c1ccccc1` (centres undefined), the cytotoxicity at 70.5 h was -16.2%.

Regarding `CCN(c1ccccc1)S(=O)(=O)c1cc(C(=O)O)cc2c1CCC2`, the cytotoxicity at 70.5 h was 21.2%.

`CC1CCN(CC2CCN(C(=O)c3c[nH]c4ncccc34)CC2)CC1`: the cytotoxicity at 70.5 h was -19.4%.

On to `CCN(c1cccc(F)c1)S(=O)(=O)c1cc(C(=O)O)cc2c1CCC2`, for which the cytotoxicity at 70.5 h was -9.22%.

`COc1cc(C(C)=O)ccc1SCC(=O)Nc1cccc(C)n1`: the cytotoxicity at 70.5 h is -19.2%.

Take `CCN(C)c1ccc(CNC(=O)c2ccc(NC(N)=O)cc2)cc1F`: the cytotoxicity at 70.5 h is -17.6%.

As to `CCc1nc(CNC2CCCCNC2=O)cs1` (centres undefined), the cytotoxicity at 70.5 h was -6.64%.

Consider `CCN(C(=O)NCCc1ccc(C)cc1C)C(C)CS(C)(=O)=O` (centres undefined), for which the cytotoxicity at 70.5 h was -12.9%.

As for `CCN(C(=O)NCCc1cccc(F)c1F)C(C)CS(C)(=O)=O` (centres undefined), the cytotoxicity at 70.5 h is -5.85%.

Regarding `CCN(C(=O)NCCc1ccccc1Cl)C(C)CS(C)(=O)=O` (centres undefined), the cytotoxicity at 70.5 h amounted to 20.5%.

On to `NC(=O)c1ccc(OCC(=O)NC2CCc3c(F)cccc32)cc1` (centres undefined), for which the cytotoxicity at 70.5 h was -5.14%.

Consider `O=C(O)c1cc2c(c(S(=O)(=O)N(CCCO)c3ccccc3)c1)CCC2`, for which the cytotoxicity at 70.5 h was -10.1%.

With `COC(C)(C)CNC(=O)N(C)Cc1nc(-c2ccccc2)c[nH]1`, the cytotoxicity at 70.5 h turned out to be 24.9%.

For `CN(Cc1nc(-c2ccccc2)c[nH]1)C(=O)NCC(=O)NC(C)(C)C`, the cytotoxicity at 70.5 h is -5.84%.

With `O=C(NCCCc1cccs1)N1CCCCC1CCO` (centres undefined), the cytotoxicity at 70.5 h is -1.44%.

Regarding `CCOCC1CCN(C(=O)Nc2ccc3c(c2)CCCN3C)C1` (centres undefined), the cytotoxicity at 70.5 h was -10.4%.

On to `OCC(O)CSCc1nnc(-c2ccc(Cl)cc2)o1` (centres undefined), for which the cytotoxicity at 70.5 h is -13.7%.

For the compound `COc1cc(F)ccc1N1CCN(Cc2nnc(C3CC3)o2)CC1`, the cytotoxicity at 70.5 h was -14.9%.

As to `CC(C)CNC(=O)Cn1cc(C(N)=O)c(-c2ccccc2)n1`, the cytotoxicity at 70.5 h was -8.01%.

With `CCC(CC)NC(=O)Cn1cc(C(N)=O)c(-c2ccccc2)n1`, the cytotoxicity at 70.5 h amounted to 17.3%.

Regarding `CC(Cc1ccco1)NC(=O)CCn1cccn1` (centres undefined), the cytotoxicity at 70.5 h was -14.7%.

For the compound `CCCN(C(=O)c1csnn1)C1CCCN(Cc2ccccc2)C1` (centres undefined), the cytotoxicity at 70.5 h was -5.57%.

Regarding `CC(C(=O)Nc1cccc(Cl)c1)N1CCN(Cc2ncc[nH]2)CC1` (centres undefined), the cytotoxicity at 70.5 h was -10.6%.

Turning to `O=C(CCc1nc(C2CC2)no1)c1ccccc1`, the cytotoxicity at 70.5 h was -16%.

For `CC(C)c1noc(CCNC(=O)N2CCC(O)(C(F)(F)F)C2)n1` (centres undefined), the cytotoxicity at 70.5 h was -14.8%.

In the case of `Cc1ccccc1CNc1ccccc1OCC(=O)N1CCOCC1`, the cytotoxicity at 70.5 h is -3.34%.

Consider `O=C(CCn1ccc2ccccc21)Nc1ccnn1CC1CCOC1` (centres undefined), for which the cytotoxicity at 70.5 h was -16.3%.

As to `Cc1cc(C(N)=O)c2c(Br)cccc2n1`, the cytotoxicity at 70.5 h is -13.6%.

Take `O=C1NC(c2cnc(C3CCC3)s2)Nc2ncccc21` (centres undefined): the cytotoxicity at 70.5 h is -26.5%.

As to `Cc1ccc(NCc2cc(C#N)ccc2F)cc1-n1nnnc1C`, the cytotoxicity at 70.5 h is -13.2%.

As for `CN(CCC(N)=O)Cc1cc(Br)cs1`, the cytotoxicity at 70.5 h is -19.7%.

On to `COC(=O)CN(C)Cc1cc(Br)cs1`, for which the cytotoxicity at 70.5 h was 38.2%.

On to `OC(COCc1ccccc1)CN1CCC(Cn2cccn2)CC1` (centres undefined), for which the cytotoxicity at 70.5 h was -22.4%.

`CCCn1nnnc1COc1ccc(C(=O)OC)cc1`: the cytotoxicity at 70.5 h is -11.5%.

Consider `Brc1ccc(CNCc2nnc3n2CCC3)s1`, for which the cytotoxicity at 70.5 h came out at 14.8%.
